The values that follow come from BindingDB's records for doi:10.7270/Q2RX99Q9 (The Scripps Research Institute Molecular Screening Center, 2013).

Broadly, the IC50 is the concentration at which inhibition is half-maximal. A lower IC50 goes with greater potency.

Each structure is given as a SMILES string.

Chain of Albumin (P02769 whole entry): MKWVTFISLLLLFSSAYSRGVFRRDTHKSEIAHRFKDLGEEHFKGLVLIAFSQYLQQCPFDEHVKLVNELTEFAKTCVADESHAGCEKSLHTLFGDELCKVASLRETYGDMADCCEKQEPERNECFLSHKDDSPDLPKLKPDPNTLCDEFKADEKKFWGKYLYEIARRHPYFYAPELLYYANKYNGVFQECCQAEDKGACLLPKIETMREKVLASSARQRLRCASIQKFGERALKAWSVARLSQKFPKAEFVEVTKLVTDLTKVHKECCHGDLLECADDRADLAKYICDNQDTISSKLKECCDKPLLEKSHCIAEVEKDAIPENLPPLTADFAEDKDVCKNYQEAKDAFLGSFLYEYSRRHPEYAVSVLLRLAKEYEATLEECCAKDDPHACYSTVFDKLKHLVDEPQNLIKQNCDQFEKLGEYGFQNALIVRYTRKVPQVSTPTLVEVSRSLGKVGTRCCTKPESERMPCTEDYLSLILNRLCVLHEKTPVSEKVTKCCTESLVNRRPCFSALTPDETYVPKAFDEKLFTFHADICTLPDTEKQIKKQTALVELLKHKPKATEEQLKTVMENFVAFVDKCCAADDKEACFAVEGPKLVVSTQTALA

The assay has as its target Albumin (Bos taurus, UniProt P02769).
For the compound `CC(NNC(=O)c1ccc(-c2ccccc2)cc1)=C1C(=O)c2ccccc2C1=O` [N-[(E)-1-(1,3-dioxoinden-2-yl)ethylideneamino]-4-phenylbenzamide], the IC50 was more than 94.1 µM.
Compound `O=C(N/N=C/C1C=C([N+](=O)[O-])C=CC1=O)c1cccc(N2CCCC2=O)c1` (stereo not drawn) came in with an IC50 of more than 94.1 µM.
For the compound `O=C1CC(=O)c2c(O)cc(O)c(O)c2C1=O` [4,5,7,8-tetrahydroxy-1,2-naphthoquinone], the IC50 was more than 94.1 µM.
`O=C(CSc1nc2ccccc2s1)N/N=C/C1C=C([N+](=O)[O-])C=CC1=O` (stereo not drawn) [MLS000777065] had a half-inhibitory concentration (IC50) of more than 94.1 µM.
To `CCOC(=O)C1C(CC)=Nc2ccccc2N=C1NC(=O)Nc1ccc(Cl)c(Cl)c1` (stereo not drawn) belongs more than 94.1 µM.
To `Cc1ccccc1C(=O)Nc1cccc(C(=O)N/N=C/C2C=C(Cl)C=C([N+](=O)[O-])C2=O)c1` (stereo not drawn) [N-(3-{[(2E)-2-(5-chloro-2-hydroxy-3-nitrobenzylidene)hydrazino]carbonyl}phenyl)-2-methylbenzamide] belongs more than 94.1 µM; to `O=C1C=CC([N+](=O)[O-])=CC1C=NNC(=S)Nc1ccc(Cl)cc1Cl` (stereo not drawn) [MLS000777079], more than 94.1 µM; to `Cc1ccc(C(=O)Nc2nc(C(C)(C)C)cs2)s1` [N-(4-tert-butyl-2-thiazolyl)-5-methyl-2-thiophenecarboxamide], more than 94.1 µM.
To `Oc1ccc(CN=Nc2ncnc3c2ncn3Cc2ccccc2)cc1O` [(4Z)-2-oxidanyl-4-[[2-[9-(phenylmethyl)purin-6-yl]hydrazinyl]methylidene]cyclohexa-2,5-dien-1-one] belongs more than 94.1 µM.
As to `CCOC(=O)c1c(C)[nH]c(C(=O)N/N=C/C2C=C([N+](=O)[O-])C=CC2=O)c1C` (stereo not drawn) [ethyl 2,4-dimethyl-5-[[[(E)-(3-nitro-6-oxocyclohexa-2,4-dien-1-ylidene)methyl]amino]carbamoyl]-1H-pyrrole-3-carboxylate], the IC50 was more than 94.1 µM.
For the compound `O=C(O)c1ccccc1NS(=O)(=O)c1ccc(N=NCc2ccc(O)c(O)c2)c([N+](=O)[O-])c1` [SMR001238114], the IC50 was more than 94.1 µM.
As to `CCc1n[nH]c(=S)n1N=CC1C=C(OC)C=C([N+](=O)[O-])C1=O` (stereo not drawn) [(6E)-6-[[(3-ethyl-5-sulfanylidene-1H-1,2,4-triazol-4-yl)amino]methylidene]-4-methoxy-2-nitro-1-cyclohexa-2,4-dienone], the IC50 is more than 94.1 µM.
Regarding `O=[N+]([O-])c1cc(Br)c(O)c(CN=Nc2nnnn2-c2cccc3ccccc23)c1` [(6E)-2-bromo-6-[[2-(1-naphthalen-1-yltetrazol-5-yl)hydrazinyl]methylidene]-4-nitrocyclohexa-2,4-dien-1-one], the IC50 was more than 94.1 µM.
Compound `CC1=CC([N+](=O)[O-])=CC(/C=N/n2c(C)nc3ccccc3c2=O)C1=O` (stereo not drawn) [MLS000778735] gave an IC50 of more than 94 µM.
To `CC1=CC(/C=N/n2c(COc3ccccc3C)nc3ccccc3c2=O)C(=O)C([N+](=O)[O-])=C1` (stereo not drawn) belongs more than 94.1 µM; to `CC1=CC([N+](=O)[O-])=CC(/C=N/NC(=O)C2COc3ccccc3O2)C1=O` (stereo not drawn) [N'-[(E)-(5-methyl-3-nitro-6-oxocyclohexa-2,4-dien-1-ylidene)methyl]-2,3-dihydro-1,4-benzodioxine-3-carbohydrazide], more than 94.2 µM.
For `CN1C(=O)C(C=NNC(=O)c2cc3ccccc3cc2O)c2ccccc21` (stereo not drawn) [MLS000912237], the IC50 was more than 94.1 µM.
The compound `Cc1cc(C(=O)N/N=C/C2C=C(Br)C=C([N+](=O)[O-])C2=O)c2ccccc2n1` (stereo not drawn) [MLS000585468] showed an IC50 of more than 94.1 µM.
In the case of `Cc1cc(C(=O)NN=CC2C=C(Cl)C=C([N+](=O)[O-])C2=O)[nH]n1` (stereo not drawn) [SMR000414694], the IC50 was more than 94.1 µM.
In turn, `O=C(CNC(=O)c1ccccc1Br)N/N=C/C1C=C([N+](=O)[O-])C=C(Br)C1=O` (stereo not drawn) [2-bromanyl-N-[2-[2-[(E)-(5-bromanyl-3-nitro-6-oxidanylidene-cyclohexa-2,4-dien-1-ylidene)methyl]hydrazinyl]-2-oxidanylidene-ethyl]benzamide] showed an IC50 of more than 94.1 µM.
`Cc1cc(=O)oc2cc(OCC(=O)N/N=C/C3C=C([N+](=O)[O-])C=CC3=O)ccc12` (stereo not drawn) [MLS000588734] returned an IC50 of more than 94.1 µM.
To `COC1=CC([N+](=O)[O-])=CC(/C=N/NC(=O)c2cc(C)nc3ccccc23)C1=O` (stereo not drawn) belongs more than 94.1 µM.
In the case of `COc1ccc(C(=O)CC=NNC(=O)c2ccc(Cl)cc2)cc1` [SMR000499516], the IC50 is more than 94.1 µM.
On to `O=C1C([N+](=O)[O-])=CC(Cl)=CC1C=NNC(=S)Nc1ccc(S(=O)(=O)N2CCOCC2)cc1` (stereo not drawn) [1-[[(E)-(3-chloro-5-nitro-6-oxo-1-cyclohexa-2,4-dienylidene)methyl]amino]-3-[4-(4-morpholinylsulfonyl)phenyl]thiourea], for which the IC50 was more than 94.1 µM.
The compound `O=C(NC(C(=O)NN=CC1C=C([N+](=O)[O-])C=CC1=O)c1n[nH]c(=O)c2ccccc12)c1ccccc1` (stereo not drawn) [N-[2-[2-[(E)-(3-nitro-6-oxidanylidene-cyclohexa-2,4-dien-1-ylidene)methyl]hydrazinyl]-2-oxidanylidene-1-(4-oxidanylidene-3H-phthalazin-1-yl)ethyl]benzamide] gave an IC50 of more than 94.1 µM.
To `Oc1c(Br)cc(CC=Nc2cc(O)c3cccnc3c2O)cc1Br` [7-[2-(3,5-dibromo-4-hydroxyphenyl)ethylamino]quinoline-5,8-dione] belongs more than 94.2 µM.
To `O=C1C=CC([N+](=O)[O-])=CC1/C=N/n1c(COc2ccccc2)nc2ccccc2c1=O` (stereo not drawn) [3-[[(E)-(3-nitro-6-oxocyclohexa-2,4-dien-1-ylidene)methyl]amino]-2-(phenoxymethyl)quinazolin-4-one] belongs more than 94.1 µM.
With `Cc1cc2cc(CNC(=O)c3ccc(C)c([N+](=O)[O-])c3)ccc2[nH]1` [MLS000724615], the IC50 was more than 94.1 µM.
In turn, `Nc1nnc(CC(=O)N/N=C/C2C=C([N+](=O)[O-])C=CC2=O)s1` (stereo not drawn) [2-(5-amino-1,3,4-thiadiazol-2-yl)-N'-[(E)-(3-nitro-6-oxo-1-cyclohexa-2,4-dienylidene)methyl]acetohydrazide] displayed an IC50 of more than 94.1 µM.
As for `O=C(N/N=C/C1C=C([N+](=O)[O-])C=C([N+](=O)[O-])C1=O)/C(=C\c1cccs1)NC(=O)c1ccccc1` (stereo not drawn) [SMR000207704], the IC50 is more than 94.1 µM.
`O=C(N/N=C/C1C=C([N+](=O)[O-])C=CC1=O)/C(=C\c1cccs1)NC(=O)c1ccccc1` (stereo not drawn) [MLS000332530] registered an IC50 of more than 94.1 µM.
With `Cc1c(NC(=S)NN=CC2C=C([N+](=O)[O-])C=CC2=O)c(=O)n(-c2ccccc2)n1C` (stereo not drawn) [SMR000415003], the IC50 is more than 94.1 µM.
To `COC1=CC(=O)C(/C=N/NC(=O)c2ccncc2)C(OC)=C1[N+](=O)[O-]` (stereo not drawn) [MLS000673335] belongs more than 94.1 µM; to `Cc1cc(C(=O)N/N=C/C2C=C(Cl)C=C([N+](=O)[O-])C2=O)c2ccccc2n1` (stereo not drawn) [N'-[(E)-(3-chloranyl-5-nitro-6-oxidanylidene-cyclohexa-2,4-dien-1-ylidene)methyl]-2-methyl-quinoline-4-carbohydrazide], more than 94.1 µM; to `O=C(NN=CC1=CC(=O)C(=O)CC1)NN=CC1=CC(=O)C(=O)CC1` [1,3-bis[[(Z)-(3-hydroxy-4-oxocyclohexa-2,5-dien-1-ylidene)methyl]amino]urea], more than 94.1 µM.
Consider `CC1=CC(/C=N/n2c(CO[N-][C+](C)c3ccccc3)nc3ccccc3c2=O)C(=O)C([N+](=O)[O-])=C1` (stereo not drawn), for which the IC50 was more than 94.1 µM.
In the case of `COc1ccc(CC(=O)N/N=C/C2C=C([N+](=O)[O-])C=C(Br)C2=O)cc1` (stereo not drawn), the half-inhibitory concentration (IC50) was more than 94.1 µM.
As to `O=C1C([N+](=O)[O-])=CC=CC1/C=N/n1cnc2scc(-c3ccc(Cl)cc3)c2c1=O` (stereo not drawn) [SMR000314525], the concentration for half-maximal inhibition (IC50) is more than 94.1 µM.
In turn, `O=C(N/N=C/C1C=C(Cl)C=C([N+](=O)[O-])C1=O)c1ccc2c(c1)OCO2` (stereo not drawn) [N'-[(E)-(3-chloranyl-5-nitro-6-oxidanylidene-cyclohexa-2,4-dien-1-ylidene)methyl]-1,3-benzodioxole-5-carbohydrazide] yielded an IC50 of more than 94.1 µM.
As to `O=C(N/N=C/C1C=CC=C([N+](=O)[O-])C1=O)c1cccs1` (stereo not drawn), the IC50 is more than 94.1 µM.
In turn, `O=C(N/N=C/C1C=C(Cl)C=C([N+](=O)[O-])C1=O)c1cccc(S(=O)(=O)N2CCOCC2)c1` (stereo not drawn) [MLS002155639] showed an IC50 of more than 94.1 µM.
Consider `C=CCN1C(=O)/C(=N\NC(=O)CNC(=O)/C=C/c2ccco2)c2ccccc21` [(E)-N-[1-Allyl-2-oxo-1,2-dihydro-indol-(3Z)-ylidene-hydrazinocarbonylmethyl]-3-furan-2-yl-acrylamide], for which the IC50 is more than 94.1 µM.
In the case of `O=Nc1[nH]c(=O)c(CC(=O)c2ccccc2)nc1NO` [SMR000539633], the IC50 was more than 94.2 µM.
